Reference: ChEMBL document CHEMBL6177915, “Design, synthesis and mechanistic insights into triclosan derived dimers as potential anti-plasmodials” (RSC Med Chem, 2025)
pIC50: −log10 of the molar value.

Tests used:
[1] = system: Plasmodium falciparum; test: Resistance index, ratio of IC50 for antiplasmodial activity against CQ-resistant Plasmodium falciparum W2 to IC50 for antiplasmodial activity against CQ-susceptible Plasmodium falciparum 3D7; type: functional
[2] = system: Plasmodium falciparum; test: Antiplasmodial activity against CQ-resistant Plasmodium falciparum W2 assessed as inhibition of parasite growth incubated for 72 hrs by HRP2 based ELISA; type: functional, organism-based; details: W2, 72 h
[3] = system: Plasmodium falciparum; test: Antiplasmodial activity against CQ-susceptible Plasmodium falciparum 3D7 assessed as inhibition of parasite growth incubated for 72 hrs by HRP2 based ELISA; type: functional, organism-based; details: 3D7, 72 h
[4] = Cytotoxicity against African green monkey Vero E6 cells assessed as cell viability measured after 48 hrs incubation by MTT assay; type: toxicity, cell-based, Vero C1008; details: chlorocebus sabaeus
[5] = Selectivity index, ratio of CC50 for Cytotoxicity against African green monkey Vero E6 cells to IC50 for Antiplasmodial activity against CQ-resistant Plasmodium falciparum W2; type: toxicity, cell-based; details: read-out: Ratio CC50/IC50
[6] = system: Heme; test: Binding affinity to heme assessed as binding constant logK of the compound in MES buffer at pH 5.6
[7] = system: Heme; test: Binding affinity to heme assessed as binding constant logK of the compound in HEPES buffer at pH 7.4
[8] = system: Plasmodium falciparum; test: Antiplasmodial activity against Plasmodium falciparum W2; type: functional, organism-based
[9] = Inhibition of Plasmodium falciparum enoyl ACP reductase

In the case of `C=C[C@H]1CN2CC[C@H]1C[C@H]2[C@H](O)c1ccnc2ccc(OC)cc12` [QUININE], the Ratio IC50 [1] was 3.75, the pIC50 [2] was 6.35 and the pIC50 [3] was 6.92.
With `Oc1cc(Cl)c(NCc2cn(CCCCOc3cc(Cl)ccc3Oc3ccc(Cl)cc3Cl)nn2)cc1Oc1ccc(Cl)cc1Cl` the Ratio IC50 [1] was 0.9, the CC50 at 48 h [4] was 72.1 µM and the pIC50 [2] was 4.66. For the same compound, the pIC50 [3] was 4.62 and the selectivity ratio [5] was 3.3.
Compound `O=[N+]([O-])c1cc(Oc2ccc(Cl)cc2Cl)c(OCc2cn(CCCCCCOc3cc(Cl)ccc3Oc3ccc(Cl)cc3Cl)nn2)cc1Cl` has a Ratio IC50 [1] of 0.96, a CC50 at 48 h [4] of 54.9 µM and a pIC50 [2] of 4.60. It also gave a pIC50 [3] of 4.58 and a selectivity ratio [5] of 2.2.
Compound `Clc1ccc(Oc2ccc(Cl)cc2OCCCCCCn2cc(COc3cc(Cl)ccc3Oc3ccc(Cl)cc3Cl)nn2)c(Cl)c1` has a Ratio IC50 [1] of 1.04, a CC50 at 48 h [4] of 104 µM and a pIC50 [2] of 4.49. The pIC50 [3] was 4.51 and the selectivity ratio [5] was 3.2.
In the case of `Oc1cc(Cl)c(NCc2cn(CCOc3cc(Cl)ccc3Oc3ccc(Cl)cc3Cl)nn2)cc1Oc1ccc(Cl)cc1Cl`, the Ratio IC50 [1] was 1.29, the CC50 at 48 h [4] was 99.3 µM and the pIC50 [2] was 4.65. It also gave a pIC50 [3] of 4.77 and a selectivity ratio [5] of 4.5.
For `CCN(CC)CCCC(C)Nc1ccnc2cc(Cl)ccc12` (configuration not stated) [CHLOROQUINE], the CC50 at 48 h [4] was greater than 100 µM.
With `O=[N+]([O-])c1cc(Oc2ccc(Cl)cc2Cl)c(OCc2cn(CCOc3cc(Cl)ccc3Oc3ccc(Cl)cc3Cl)nn2)cc1Cl` the Ratio IC50 [1] was 0.95, the CC50 at 48 h [4] was 91.8 µM and the pIC50 [2] was 4.54. The pIC50 [3] was 4.53 and the selectivity ratio [5] was 3.6.
Compound `CCNCc1cc(Nc2ccnc3cc(Cl)ccc23)ccc1O` [DESETHYL AMODIAQUINE] has a Ratio IC50 [1] of 6, a CC50 at 48 h [4] of 87 µM and a selectivity ratio [5] of 725.
`C=C[C@H]1C[N@@]2CC[C@H]1C[C@H]2[C@H](O)c1ccnc2ccc(OC)cc12` [QUININE] showed a CC50 at 48 h [4] greater than 100 µM and a selectivity ratio [5] greater than 222.
`Clc1ccc(Oc2ccc(Cl)cc2OCCOc2cc(Cl)ccc2Oc2ccc(Cl)cc2Cl)c(Cl)c1` gave a Ratio IC50 [1] of 0.77, a log K [6] of 6.58 and a log K [7] of 6.4. For the same compound, the CC50 at 48 h [4] was 90.9 µM, the pIC50 [2] was 5.03 and the pIC50 [3] was 4.92. The selectivity ratio [5] was 9.8.
With `Oc1cc(Cl)c(NCc2cn(CCCCCOc3cc(Cl)ccc3Oc3ccc(Cl)cc3Cl)nn2)cc1Oc1ccc(Cl)cc1Cl` the Ratio IC50 [1] was 0.72, the CC50 at 48 h [4] was 75 µM and the pIC50 [2] was 4.70. For the same compound, the pIC50 [3] was 4.56 and the selectivity ratio [5] was 3.8.
For `Clc1ccc(Oc2ccc(Cl)cc2OCCn2cc(COc3cc(Cl)ccc3Oc3ccc(Cl)cc3Cl)nn2)c(Cl)c1`, the Ratio IC50 [1] was 0.97, the CC50 at 48 h [4] was 105 µM and the pIC50 [2] was 4.67. For the same compound, the pIC50 [3] was 4.66 and the selectivity ratio [5] was 4.9.
`Clc1ccc(Oc2ccc(Cl)cc2OCCCCCOc2cc(Cl)ccc2Oc2ccc(Cl)cc2Cl)c(Cl)c1` gave a Ratio IC50 [1] of 1.31, a CC50 at 48 h [4] of 70.2 µM and a pIC50 [2] of 4.46. The pIC50 [3] was 4.58 and the selectivity ratio [5] was 2.
Compound `O=[N+]([O-])c1cc(Oc2ccc(Cl)cc2Cl)c(OCc2cn(CCCOc3cc(Cl)ccc3Oc3ccc(Cl)cc3Cl)nn2)cc1Cl` has a Ratio IC50 [1] of 1.14, a CC50 at 48 h [4] of 81.9 µM and a pIC50 [2] of 4.59. It also gave a pIC50 [3] of 4.65 and a selectivity ratio [5] of 3.2.
Compound `O=[N+]([O-])c1cc(Oc2ccc(Cl)cc2Cl)c(OCc2cn(CCCCOc3cc(Cl)ccc3Oc3ccc(Cl)cc3Cl)nn2)cc1Cl` has a Ratio IC50 [1] of 0.77, a CC50 at 48 h [4] of 83.9 µM and a pIC50 [2] of 4.59. It also gave a pIC50 [3] of 4.48 and a selectivity ratio [5] of 3.3.
For `Clc1ccc(Oc2ccc(Cl)cc2OCCCCCCOc2cc(Cl)ccc2Oc2ccc(Cl)cc2Cl)c(Cl)c1`, the Ratio IC50 [1] was 0.95, the CC50 at 48 h [4] was 63.3 µM and the pIC50 [2] was 4.69. It also gave a pIC50 [3] of 4.67 and a selectivity ratio [5] of 3.1.
`Clc1ccc(Oc2ccc(Cl)cc2OCCCCCn2cc(COc3cc(Cl)ccc3Oc3ccc(Cl)cc3Cl)nn2)c(Cl)c1` showed a Ratio IC50 [1] of 1.3, a CC50 at 48 h [4] of 64.6 µM and a pIC50 [2] of 4.60. It also gave a pIC50 [3] of 4.71 and a selectivity ratio [5] of 2.6.
Work on `Clc1ccc(Oc2ccc(Cl)cc2OCCCCn2cc(COc3cc(Cl)ccc3Oc3ccc(Cl)cc3Cl)nn2)c(Cl)c1` yielded a Ratio IC50 [1] of 1.06, a CC50 at 48 h [4] of 76.5 µM and a pIC50 [2] of 4.65. It also gave a pIC50 [3] of 4.68 and a selectivity ratio [5] of 3.5.
`O=[N+]([O-])c1cc(Oc2ccc(Cl)cc2Cl)c(OCc2cn(CCCCCOc3cc(Cl)ccc3Oc3ccc(Cl)cc3Cl)nn2)cc1Cl` gave a Ratio IC50 [1] of 1.08, a CC50 at 48 h [4] of 116 µM and a pIC50 [2] of 4.51. The pIC50 [3] was 4.55 and the selectivity ratio [5] was 3.8.
`O=C(N/N=C/c1ccc(OCc2cn(CCNc3ccnc4cc(Cl)ccc34)nn2)cc1)c1cnncn1` showed a pIC50 [8] of 6.59.
Work on `N#Cc1ccc(Oc2ccc(Cl)cc2Cl)c(O)c1` yielded a pIC50 [9] of 7.31.
`Oc1cc(Cl)ccc1Oc1ccc(Cl)cc1Cl` gave a log K [6] of 6.16 and a log K [7] of 5.8.
In the case of `Clc1ccc(Oc2ccc(Cl)cc2OCCCCOc2cc(Cl)ccc2Oc2ccc(Cl)cc2Cl)c(Cl)c1`, the Ratio IC50 [1] was 0.93, the CC50 at 48 h [4] was 99.7 µM and the pIC50 [2] was 4.65. For the same compound, the pIC50 [3] was 4.62 and the selectivity ratio [5] was 4.5.
`Oc1cc(Cl)c(NCc2cn(CCCCCCOc3cc(Cl)ccc3Oc3ccc(Cl)cc3Cl)nn2)cc1Oc1ccc(Cl)cc1Cl` gave a Ratio IC50 [1] of 1.05, a CC50 at 48 h [4] of 66.3 µM and a pIC50 [2] of 4.59. For the same compound, the pIC50 [3] was 4.61 and the selectivity ratio [5] was 2.6.
`Oc1cc(Cl)c(NCc2cn(CCCOc3cc(Cl)ccc3Oc3ccc(Cl)cc3Cl)nn2)cc1Oc1ccc(Cl)cc1Cl` gave a Ratio IC50 [1] of 0.52, a log K [6] of 6.3 and a log K [7] of 5.17. The CC50 at 48 h [4] was 76.8 µM, the pIC50 [2] was 4.96 and the pIC50 [3] was 4.68. It also gave a selectivity ratio [5] of 7.
With `Clc1ccc(Oc2ccc(Cl)cc2OCCCOc2cc(Cl)ccc2Oc2ccc(Cl)cc2Cl)c(Cl)c1` the Ratio IC50 [1] was 1.11, the CC50 at 48 h [4] was 81.5 µM and the pIC50 [2] was 4.51. The pIC50 [3] was 4.56 and the selectivity ratio [5] was 2.6.
With `Clc1ccc(Oc2ccc(Cl)cc2OCCCn2cc(COc3cc(Cl)ccc3Oc3ccc(Cl)cc3Cl)nn2)c(Cl)c1` the Ratio IC50 [1] was 1.17, the CC50 at 48 h [4] was 103 µM and the pIC50 [2] was 4.61. It also gave a pIC50 [3] of 4.68 and a selectivity ratio [5] of 4.2.
